The text below walks through data of US12329755B2, “Bromodomain inhibitors to target therapy-resistant cancer” (University of Tennessee Research Foundation, priority 2019, dated 2025).

Assay [1] relates to X10 BTICs. Particulars: cited from earlier work.
For assay [2], the system named is LN229 TMZ-resistant glioma cell line. The experiment in a line: IncuCyte live cell imaging proliferation assay. The class given is cell-based. The protocol: FIG. 2A is a graph showing relative growth of temozolomide (TMZ)-resistant glioma cells (LN229 cells) alone (control); after treatment with 100 micromolar (μM) TMZ; after treatment with a Brahma-related gene-1 bromodomain inhibitor (BRI), PFI-3 (1 μM); or after treatment with both TMZ and PFI-3 (combined).
FIG. 2B is a graph showing relative growth of temozolomide (TMZ)-resistant glioma cells (LN229 cells) alone (control); after treatment with 100 micromolar (μM) TMZ; after treatment with a Brahma-related gene-1 bromodomain inhibitor (BRI), IV-073 (1 μM); or after treatment with both TMZ and IV-073 (combined).
FIG. 2C is a graph showing relative growth of LN229 Temozolomide (TMZ)-resistant glioma cells alone (control); after treatment with 100 micromolar (μM) TMZ; after treatment with a Brahma-related gene-1 bromodomain inhibitor (BRI), IV-077 (1 μM); or after treatment with both TMZ and IV-077 (combined).
FIG. 2D is a graph showing relative growth of LN229 Temozolomide (TMZ)-resistant glioma cells alone (control); after treatment with 100 micromolar (μM) TMZ; after treatment with a Brahma-related gene-1 bromodomain inhibitor (BRI), IV-085 (1 μM); or after treatment with both TMZ and IV-085 (combined).
To determine whether PFI-3 (also called YH-IV-081) and its analogs (referred to herein as “PAs”) enhanced TMZ sensitivity IncuCyte live cell imaging proliferation assays (high throughput system) were performed with the LN229 TMZ-resistant glioma cell line.

Assay [3] concerns X16 BTIC. Briefly: X16 BTIC mouse flank xenografts. Format: in vivo, mice. Particulars: combined with TMZ, 8 weeks. The protocol: FIG. 1F is a graph showing the effect of temozolomide (TMZ) on the tumorigenicity of control (black portion of bars) and Brahma-related gene-1-knock-down (BRG1-KD) (grey portion of bars) brain-tumor initiating cells (BTICs) after injection of 10^6 tumor cells into the flanks of immunodeficient mice. Live animal imaging preformed at weekly intervals. After confirming tumor initiation by live animal imaging, mice were treated with TMZ by interperitoneal (IP) injection (10 milligrams per kilogram (mg/kg) on alternate days). The reduction in tumor volume was calculated at 1 week (left) and 2 weeks (right) post-treatment. *p≤0.05.
FIG. 5 is a graph showing the effect of Brahma-related gene-1 bromodomain inhibitors (BRIs), PFI-3 and the PFI-3 analogs (PAs) IV-073, IV-077, and IV-085, on the anticancer activity of temozolomide (TMZ) on brain-tumor initiating-cell (BTIC) tumor growth. BTICs (10^6 cells) from X16 glioblastoma were injected into the flanks of immunodeficient mice. After confirming tumor initiation by live animal imaging, mice were treated with PFI-3 or a PA (0.5 microgram per mouse (μg/mouse)) and TMZ (0.25 mg/mouse) by intrarperitoneal (IP) injection on alternate days. The reduction in tumor volume was calculated at 2 weeks post-treatment.
BRG1 loss sensitizes BTICs to TMZ in vitro and in vivo: Although the alkylating agent TMZ is front-line chemotherapy in the treatment of GBM, a significant clinical problem is intrinsic or adaptive resistance to TMZ.^63 To evaluate TMZ sensitivity, GBM6 or X16 BTICs were treated with 300 μM or 500 μM TMZ, and cell proliferation was determined. […] Since BRG1 has been implicated in DNA double-strand break repair,^65-67 it was hypothesized that BRG1 loss in BTICs would sensitize BTICs to TMZ. […] To determine whether BRG1-KD sensitized BTICs to TMZ in vivo, animal studies were conducted with control (scrambled shRNA) and BRG1-KD X16 BTICs injected into the flanks of NSG mice. After tumor initiation was confirmed by live animal imaging, mice were treated with TMZ. […] Thus, despite X16 BRG1-KD BTICs producing larger tumors, the tumors were sensitized to TMZ therapy.
In contrast, all mice with single drug treatment had to be euthanized because the tumors had reached […] by 3 weeks post-treatment.

The test system of assay [4] is X16 BTICs. Conditions: cited from earlier work.
Assay [5] relates to GFAP. Particulars: X16 BTICs; cited from earlier work.
For assay [6], the system named is GBM cells. Briefly: overall statements on GBM cell death and sensitization to TMZ. Format: cell-based. An excerpt:
The syntheses of two exemplary PA BRIs, referred to herein as YH-IV-073 (or IV-073), and YH-IV-077 (or IV-077), as well as of PFI-3 (also referred to herein as YH-IV-081), are shown in Scheme 2, below. As shown in Scheme 2, commercially available tert-butyloxycarbonyl (BOC)-protected amine 1 is contacted with 2-bromopyridine (2) to form intermediate 3. The protecting group can be removed (e.g., via hydrolysis) to give the corresponding amine 4. Compound 4 can be coupled with a carboxylic acid (5, 6, or 7) to afford target YH-IV-073, YH-IV-077 and YH-IV-081, respectively. […] These analogs will provide greater insight into the importance of substitution of the A ring.
The synthetic route shown in Scheme 3, below, was used to synthesize new analogs with different substituents in the 2-position of the A-ring, such as YH-IV-085. As shown in Scheme 3, a commercially available 1-phenylprop-2-yn-1-one (e.g., 8 or 9) can be reacted with BOC-protected amine compound 1 to afford a BOC-protected intermediate (e.g., 10 or 11), which can be hydrolyzed to provide corresponding deprotected intermediate (12 or 13). The intermediates can be coupled with the 2-bromopyridine (2) to yield target compounds (e.g., 14 or YH-IV-085), respectively. YH-IV-085 is believed to be the first PFI-3 analog prepared without a 2-hydroxy moiety in the A-ring.

Assay [7] relates to embryonic stem cell. Conditions: cited from earlier work.

As for `O=C(/C=C/N1C[C@H]2C[C@@H]1CN2c1ccccn1)c1ccccc1O` [PFI-3, (E)-1-(2-hydroxyphenyl)-3-((1R,4R)-5-(pyridin-2-yl)-2,5-diazabicyclo[2.2.1]heptan-2-yl)prop-2-en-1-one], the “sensitization to Carmustine” value in assay [1] (X10 BTICs, PFI-3 treatment) is recorded as “sensitized”; in assay [4] (X16 BTICs, PFI-3 treatment) it was “sensitized”. Also, the “effect on X10 BTIC proliferation” value in assay [1] (combination of PFI-3 and TMZ) is “marked effect on X10 BTIC proliferation”. The “sensitization to TMZ” value in assay [2] (BRI 1 μM combined with 100 μM TMZ) is “potently sensitized”. Also, the “effect on cell growth” value in assay [2] (BRI alone (1 μM)) was “relatively minor effects on cell growth”. Also, the “tumors after treatment for 8 weeks” value in assay [3] is given as “less dramatic effect”. Also, the “effect on X16 BTIC proliferation” value in assay [4] (combination of TMZ and PFI-3, versus either agent alone) is listed as “markedly greater effect on X16 BTIC proliferation than either agent alone”. In addition, the GFAP protein expression result in assay [5] was “upregulated GFAP protein expression”. Further, in assay [6] (also in cells resistant to DNA alkylation agents), the “sensitizing GBM cells to DNA alkylation by TMZ” value is listed as “capable of sensitizing GBM cells”. The GBM cell death result in assay [6] (used alone) was “do not cause GBM cell death”. Moreover, the “embryonic stem cell phenotype” value in assay [7] is given as “inhibits the embryonic stem cell phenotype”.
